Publication PMC5607274, “An iterative compound screening contest method for identifying target protein inhibitors using the tyrosine-protein kinase Yes” (Scientific Reports, 2017)

Target: T1, human recombinant Yes [a.a. 2–543 (end)] (Homo sapiens, UniProt P07947)
T1 construct: human recombinant Yes [a.a; 2–543 (end)]; purchased BPS Bioscience 40488
Assay: ADP-Glo kinase assay, inhibition rates of Yes phosphorylation activity (first and second screening)
Format: biochemical
Conditions: first screening; mean of n = 4 wells; 10 μmol L−1 compound
Experimental: All inhibitory assays of the phosphorylation activity of Yes were performed in accordance with the Promega Technical Manual for the ADP-Glo™ Kinase Assay (Fitchburg, WI, USA. Catalog number: V9102). The human recombinant Yes [a.a. 2–543 (end)] was purchased from BPS Bioscience (catalog number: 40488). The details of the assay protocol and reagent information are given elsewhere.
The screening was conducted in three steps consisting of the first screening, the second screening, and the IC50 determination, as can be illustrated in Fig. 1b. First, we determined the inhibition rates of the 1,991 compounds. Each compound was placed in 4 wells of a 384-well plate. In total, 80 compounds were assayed on one plate and the other wells were used for positive and negative controls. The compounds were randomly placed on plates so that compounds proposed by one group were not placed on a plate together. A mean of four inhibition rates for each compound was compared to criteria for the first screening. […] Second, the inhibition rates of the screened compounds were determined on one plate using the same procedure of the first screening, where compounds were dissolved from fresh powder. […] Screened compounds were then evaluated for their IC50 values.

T1 sequence (P07947 2-543): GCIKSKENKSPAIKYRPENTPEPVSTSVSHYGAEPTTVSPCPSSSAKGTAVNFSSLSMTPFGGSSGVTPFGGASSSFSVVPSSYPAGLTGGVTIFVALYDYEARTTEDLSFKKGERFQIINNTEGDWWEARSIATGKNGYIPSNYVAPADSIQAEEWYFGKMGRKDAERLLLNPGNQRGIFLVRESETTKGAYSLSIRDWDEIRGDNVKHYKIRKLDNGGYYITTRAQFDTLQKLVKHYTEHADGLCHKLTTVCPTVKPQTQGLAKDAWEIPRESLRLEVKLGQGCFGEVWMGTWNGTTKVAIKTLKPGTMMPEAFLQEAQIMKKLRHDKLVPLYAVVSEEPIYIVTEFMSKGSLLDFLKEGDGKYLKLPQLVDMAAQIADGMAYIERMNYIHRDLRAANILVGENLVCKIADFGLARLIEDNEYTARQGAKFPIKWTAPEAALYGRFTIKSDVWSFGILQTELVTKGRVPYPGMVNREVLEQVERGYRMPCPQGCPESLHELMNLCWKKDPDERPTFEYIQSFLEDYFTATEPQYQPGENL

First screening IR (inhibition rate) | SMILES
-12% | COc1ccc2cc(-c3cc(C(=O)OCC(=O)Nc4cccc(C)c4)c4ccccc4n3)ccc2c1 [Compound Z18792577]
-19% | CCN(CC)S(=O)(=O)c1ccc(Cl)c(NC(=O)COC(=O)c2cc(-c3ccc4cc(OC)ccc4c3)nc3ccccc23)c1 [Compound Z18792611]
0% | O=C(OCC(=O)N1N=C(c2ccc(Cl)cc2)CC1c1ccco1)c1cc(-c2ccco2)nc2ccccc12 (centres unmarked) [Compound Z18799147]
9% | CSc1ncccc1C(=O)OCC(=O)N1N=C(c2ccc3ccccc3c2)CC1c1ccccc1 (centres unmarked) [Compound Z18838070]
2% | CCc1nc2ccccc2c(C(=O)OCC(=O)Nc2cc(C(N)=O)cc(C(N)=O)c2)c1C [Compound Z19092990]
-2% | CN(CC(=O)Nc1ccccc1Cl)C(=O)COC(=O)c1c2c(nc3ccccc13)CCC(C(C)(C)C)C2 (centres unmarked) [Compound Z19182299]
4% | Cc1ccc(NC(=O)CSc2ncnc3ccccc23)cc1F [Compound Z19314901]
0% | CC1CCC(C(C)C)C(OC(=O)CSc2ncnc3ccccc23)C1 (centres unmarked) [Compound Z19316042]
18% | N#Cc1ccc(Cl)cc1NC(=O)CSc1ncnc2ccccc12 [Compound Z19316082]
1% | Cc1ccccc1Nc1nc(N)nc(CSc2nnc(NCc3ccccc3)s2)n1 [Compound Z19326161]
7% | COc1ccc(/C=C2/CCCc3c2nc2ccccc2c3C(=O)OCC(=O)Nc2sc3c(c2C(=O)Nc2ccc(Cl)cc2)CCCC3)cc1 [Compound Z19394488]
-3% | Cc1ccccc1-n1c(SCC(=O)Nc2ccc(N3CCOCC3)cc2)nnc1-c1ccncc1 [Compound Z19446050]
4% | O=C(CSc1n[nH]c(-c2cccs2)n1)Nc1ccc(-c2ccccc2)cc1 [Compound Z19449989]
17% | CC(Sc1n[nH]c(-c2cccs2)n1)C(=O)c1c[nH]c2ccccc12 (centres unmarked) [Compound Z19450299]
2% | CC(Sc1n[nH]c(-c2cccs2)n1)c1nc2ccccc2c(=O)[nH]1 (centres unmarked) [Compound Z19451548]
13% | O=C(CSc1nnc(-c2c[nH]c3ccccc23)n1-c1ccc(Cl)cc1)N1CCNC1=O [Compound Z19511505]
-2% | COC(=O)c1c2c(nc3ccccc13)/C(=C\c1ccc3c(c1)OCO3)CCC2 [Compound Z19539846]
7% | O=C(CSc1nc2ccccc2[nH]1)NC(=O)NCc1ccccc1 [Compound Z19649872]
6% | O=C(CSc1nc2ccccc2s1)Nc1cccc2c1C(=O)c1ccccc1C2=O [Compound Z19654122]
7% | CCc1cccc(NC(=O)COC(=O)Cc2cccc3ccccc23)c1 [Compound Z19678477]

First screening IR (inhibition rate) | SMILES
1% | CCn1c2ccccc2c2cc(NC(=O)COC(=O)c3c4c(nc5ccccc35)CCCC4)ccc21 [Compound Z19690549]
10% | CC(C)N(c1ccccc1)c1ccc(NC(=O)COC(=O)c2c3c(nc4ccccc24)CCCC3)cc1 [Compound Z19690670]
28% | Cc1ccccc1Nc1nc(N)nc(CSc2ccccc2)n1 [Compound Z19751109]
5% | O=C(COc1c(Br)cc(Br)c2cccnc12)N1CCCCC1 [Compound Z19811005]
3% | COc1ccccc1NC(=O)c1ccc(NC(=O)COc2ccc(-c3ccccc3)cc2)cc1 [Compound Z19829052]
-7% | Cc1ccccc1Nc1nc(N)nc(CSc2nc3ccccc3c(=O)n2CCCN2CCOCC2)n1 [Compound Z19837406]
46% | O=C(CSc1nc2ccccc2c(=O)n1CCCN1CCOCC1)Nc1ccc2ccccc2c1 [Compound Z19837911]
2% | COc1ccc(-n2c(SCC(=O)N3CCCCCC3)nnc2-c2ccc(Cl)cc2)cc1 [Compound Z19871234]
27% | COc1cccc(-c2nnc(SCC(=O)N3CCOCC3)n2-c2ccc(C)cc2)c1 [Compound Z19982748]
-5% | O=C(CSc1nnc(COc2ccccc2Cl)n1-c1ccccc1)N1CCc2ccccc2C1 [Compound Z20151781]
3% | Cc1cccc(C)c1Nc1nnc(SCC(=O)NC(Cc2c[nH]c3ccccc23)C(=O)O)s1 (centres unmarked) [Compound Z20162836]
-9% | Cc1ccc(NC(=O)C(C)Sc2ncnc3sc4c(c23)CCC4)cc1 (centres unmarked) [Compound Z20227630]
-1% | Cc1sc2ncnc(SCC(=O)Nc3ncc(Cl)c(C)c3Cl)c2c1C [Compound Z20229401]
4% | CC(Sc1nnc2ccccn12)C(=O)Nc1nc(-c2ccc(Cl)c(Cl)c2)cs1 (centres unmarked) [Compound Z20241270]
21% | CC(Sc1nnc2ccccn12)C(=O)Nc1nc(-c2ccc(F)c(F)c2)cs1 (centres unmarked) [Compound Z20241790]
8% | Cc1cc(SCC(=O)NC(=O)NC2CCCC2)nc2ccccc12 [Compound Z20243594]
5% | Cc1cc(SCC(=O)c2cc(C)n(-c3ccccc3F)c2C)nc2ccccc12 [Compound Z20243606]
8% | Cc1ccc(C)c(-n2nnnc2SC(C)C(=O)Nc2ccc(Cl)cn2)c1 (centres unmarked) [Compound Z21689617]
-2% | COCCn1cnc2c1c(=O)n(CC(=O)NC(=O)NC1CCCCC1C)c(=O)n2Cc1ccccc1 (centres unmarked) [Compound Z24102979]
9% | CCn1cnc2c1c(=O)n(CC(=O)N1CCC(Cc3ccccc3)CC1)c(=O)n2Cc1ccccc1 [Compound Z24103907]

First screening IR (inhibition rate) | SMILES
8% | COC(=O)c1ccc(CNC(=O)Cn2c(=O)c3c(ncn3CCC(C)C)n(Cc3ccccc3)c2=O)cc1 [Compound Z24149625]
4% | C=CCn1c(SCc2cc(=O)n3ccsc3n2)nnc1-c1ccncc1 [Compound Z24172012]
-6% | C=CCn1c(COc2ccccc2F)nnc1SCCCn1c(=O)[nH]c2ccccc21 [Compound Z24188026]
0% | Cc1ccc(C(=O)C(Sc2nnc(C3COc4ccccc4O3)n2C)c2ccc(C)cc2)cc1 (centres unmarked) [Compound Z24312958]
8% | COc1ccc(S(=O)(=O)NCC(=O)OCC(=O)Nc2ccc(Cl)c(C(F)(F)F)c2)cc1 [Compound Z24395276]
0% | C=CCN(CC(=O)Nc1ccc(S(=O)(=O)N2CCOCC2)cc1)S(=O)(=O)c1ccccc1C(F)(F)F [Compound Z24398732]
40% | CC(C)(C)c1ccc(OCc2nnc(SCC(=O)N3CCC(c4ccccc4)=N3)n2N)cc1 [Compound Z24578166]
9% | O=C(COc1cccnc1[N+](=O)[O-])Nc1ccc2c(c1)OCCO2 [Compound Z24778709]
-13% | Cc1ccc(SCc2nc(N)nc(Nc3ccccc3C)n2)cc1C [Compound Z24835676]
-1% | Cc1cc(C)c(NC(=O)CNC(=O)COc2ccccc2C(=O)N2CCCCC2)c(C)c1 [Compound Z25138787]
17% | COc1ccccc1NC(=O)c1ccc(NC(=O)COc2ccc(-n3cnnn3)cc2)cc1 [Compound Z25181441]
4% | CC(Sc1n[nH]c(-c2ccccc2Br)n1)C(=O)Nc1ccc(F)cc1 (centres unmarked) [Compound Z25191222]
-4% | Cc1ccc2nc(CSc3n[nH]c(-c4ccccc4)n3)cn2c1 [Compound Z25398010]
49% | CC(Sc1n[nH]c(-c2ccccc2)n1)C(=O)c1c[nH]c2ccccc12 (centres unmarked) [Compound Z25398193]
1% | COC(=O)c1cc(CSc2n[nH]c(-c3ccccc3)n2)oc1C [Compound Z25398505]
13% | O=C(CSc1n[nH]c(-c2ccccc2)n1)N1N=C(c2ccc(Cl)cc2)CC1c1ccco1 (centres unmarked) [Compound Z25399394]
-1% | Cc1oc2cc(OCC(=O)N(C)C3CCS(=O)(=O)C3)ccc2c(=O)c1-c1c(F)cccc1Cl (centres unmarked) [Compound Z25645184]
-11% | CC(O)CNc1nc2ccccc2n1CC(=O)NCc1cccs1 (centres unmarked) [Compound Z25766910]
-24% | CC(=O)CCc1ccc(OCc2cc(=O)n3cc(C)ccc3n2)cc1 [Compound Z25824142]
